In PubChem BioAssay (NCI):
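48-hour exposure; five concentrations; linearly interpolated endpoints. GI50 is the concentration that inhibits growth by half. The concentration for full growth arrest is given as TGI.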

Columns and labels:
Test in all cases: NCI tumour cell line growth inhibition, 48 h
SK-MEL-2 melanoma = system: SK-MEL-2 melanoma
ACHN renal = system: ACHN renal
HL-60(TB) leukemia = system: HL-60(TB) leukemia
EKVX NSCLC = system: EKVX NSCLC
MOLT-4 leukemia = system: MOLT-4 leukemia
HCC-2998 colon = system: HCC-2998 colon
SNB-75 CNS = system: SNB-75 CNS
DU-145 prostate = system: DU-145 prostate
A498 renal = system: A498 renal

Row | Compound | TGI (SK-MEL-2 melanoma) [µM] | TGI (ACHN renal) [µM] | TGI (HL-60(TB) leukemia) [µM] | TGI (EKVX NSCLC) [µM] | TGI (MOLT-4 leukemia) [µM] | TGI (HCC-2998 colon) [µM] | TGI (SNB-75 CNS) [µM] | TGI (DU-145 prostate) [µM] | TGI (A498 renal) [µM] | GI50 (SK-MEL-2 melanoma) [µM] | GI50 (ACHN renal) [µM] | GI50 (A498 renal) [µM] | GI50 (MOLT-4 leukemia) [µM] | GI50 (HCC-2998 colon) [µM] | GI50 (HL-60(TB) leukemia) [µM] | GI50 (SNB-75 CNS) [µM]
1 | Cc1cc(C)c(-c2noc(-c3ccc(Cl)cc3)c2C2=NCCCN2)c(C)c1 | 49.9 | > 100 | 48.7 | > 100 | 41.7 | 43.6 |  |  |  |  |  |  |  |  |  | 
2 | Clc1cccc(-c2nnc(-c3nn(-c4ccccc4)c4nc5ccccc5nc34)o2)c1 | > 100 | > 100 | > 100 | > 100 | > 100 | > 100 | > 100 |  |  |  |  |  |  |  |  | 
3 | O=c1c(Cl)c(Cl)cnn1CCCl |  | 2.35 | 5.58 | 15.9 | 7.46 | 9.39 | 24.1 | 34 | 29 |  |  |  |  |  |  | 
4 | O=C(Nc1ccc(Cl)cc1Cl)OC(Cn1cncn1)c1ccc(Cl)cc1Cl (configuration not stated) | 33.7 | 29 | > 100 | 31.5 | > 100 |  | 30.1 |  | 34.2 |  |  |  |  |  |  | 
5 | COc1c(-c2ccccc2)nc2ccc(Oc3ccccc3)nn12 | > 94.4 | > 100 | > 57.3 | > 100 | > 64.7 | > 100 | > 100 |  | > 66.5 |  |  |  |  |  |  | 
6 | O=C(/C=C\c1cccc2ccccc12)c1ccc(Cl)cc1Cl |  | 32.6 | 41.1 | > 100 | 63.9 | 92 | > 100 |  | > 100 |  |  |  |  |  |  | 
7 | CC1CCC2CC(=O)OC([C@@H]3C(=O)O[C@@H](C4=CCCC4)C4C(C)CCC43)C12 (some centres not stated) | > 100 | > 100 | 65.1 | > 100 | > 100 | > 100 | > 100 |  |  |  |  |  |  |  |  | 
8 | COc1ccc(S(=O)(=O)N(CC(=O)O)c2ccccc2)cc1 | > 100 | > 100 | > 100 | > 100 | > 100 | > 100 | > 100 |  | > 100 |  |  |  |  |  |  | 
9 | Nc1c(Cl)ncnc1NCCCCCCCCCCCCNc1ncnc(Cl)c1N | 7.92 |  | 2.12 | 98.1 |  | 56.9 | 7.16 |  | > 100 |  |  |  |  |  |  | 
10 | O=C(Nc1ccc(Cl)c(Cl)c1)C(=O)C(C(=O)c1ccccc1-c1ccccc1)C1OC(=O)c2ccccc21 (configuration not stated) | 24.7 | > 100 | 69.4 | 43.4 | > 100 | 27.6 | 41.3 |  | 65.5 |  |  |  |  |  |  | 
11 | COC(=O)[C@@H]1Cc2c([nH]c3ccccc23)[C@H](c2ccccc2)N1 | 82.8 | > 100 | > 100 | > 100 | > 100 | 91.8 | 86.1 |  | 48.6 |  |  |  |  |  |  | 
12 | CN(/N=C/c1ccnc2ccccc12)c1c([N+](=O)[O-])cc([N+](=O)[O-])cc1[N+](=O)[O-] | 89.1 | > 100 | 61.2 | > 100 | > 100 | > 100 | > 100 |  | > 100 |  |  |  |  |  |  | 
13 | COc1ccc(OC)c(/C=N/N=C(\N)NO)c1 | > 100 | 81.4 | > 100 | > 100 |  |  | > 100 |  |  |  |  |  |  |  |  | 
14 | CN(/N=C\c1ccnc2ccccc12)c1ccc([N+](=O)[O-])cc1 | > 100 | > 100 | > 100 | > 100 | > 100 | > 100 | > 100 |  | > 100 |  |  |  |  |  |  | 
15 | COC(=O)[C@@]12CC(C(C)C)[C@H]3CC(C(=O)C=C1OC)[C@H]32 (some centres not stated) | > 100 | > 100 | > 100 | > 100 | > 100 | > 100 | > 100 |  | > 100 |  |  |  |  |  |  | 
16 | COC(=O)C1=CC2C=CC(C1C(=O)OC)C1C(C(=O)OC)=C(C(=O)OC)C(C(=O)OC)=C(C(=O)OC)C21OC (configuration not stated) | > 100 | > 100 | > 100 | > 100 | > 100 | > 100 | > 100 |  | > 100 |  |  |  |  |  |  | 
17 | N/N=C(/Cc1nc2ccc(C(=O)c3ccccc3)cc2[nH]c1=O)C(=O)Nc1ccc([N+](=O)[O-])cc1[N+](=O)[O-] | > 100 | > 100 |  | > 100 | > 100 | > 100 |  |  | > 100 | > 100 | > 100 | > 100 | > 100 | > 100 |  | 
18 | CC(=O)[C@H]1CCC2[C@@H]3CC=C4C[C@@H]([O-])CC[C@]4(C)C3CC[C@@]21C.CC(=O)[C@H]1CCC2[C@@H]3CC=C4C[C@@H]([O-])CC[C@]4(C)C3CC[C@@]21C.CC(=O)[CH-]C(=O)c1ccccc1.CC(=O)[CH-]C(=O)c1ccccc1.Cl.[Ti+4] (some centres not stated) | 31 | 99.1 | > 100 |  | > 100 | 85.3 | 66.2 |  | 27 | 14.7 | 22.8 | 12.8 | 38.1 | 33.2 | 4.64 | 24.4
